Reference: PubChem BioAssay AID1963867 (Molecular Pharmacology Branch, DTP, NCI, 2024)

Tested on: KRAS-mutant PDC tumor spheroid with HUVEC/MSC, viability
Test: Anticancer human tumor 327498-153-R-J2-PDC patient-derived uterine carcinosarcoma cell line growth inhibition [KRAS2]
Conditions: for IC50: curve of first compound; for viability, T/C: stronger effect = lower value
How it was run: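 Combination screen of spheroid viability in tumor-cell co-cultures with endothelial (HUVEC) and mesenchymal stem cell stroma. Each agent was tested in half-log dilutions, topping at clinical Cmax or at 10 microM without a known Cmax.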

[1] = second compound 0.0316 µM, first compound 0.000316 µM
[2] = second compound 0.0316 µM, first compound 0.001 µM
[3] = second compound 0.0316 µM, first compound 0.00316 µM
[4] = second compound 0.0316 µM, first compound 0.01 µM
[5] = second compound 0.0316 µM, first compound 0.0316 µM
[6] = second compound 0.1 µM, first compound 0.000316 µM
[7] = second compound 0.1 µM, first compound 0.001 µM
[8] = second compound 0.1 µM, first compound 0.00316 µM
[9] = second compound 0.1 µM, first compound 0.01 µM
[10] = second compound 0.1 µM, first compound 0.0316 µM
[11] = second compound 0.316 µM, first compound 0.000316 µM
[12] = second compound 0.316 µM, first compound 0.001 µM
[13] = second compound 0.316 µM, first compound 0.00316 µM
[14] = second compound 0.316 µM, first compound 0.01 µM
[15] = second compound 0.316 µM, first compound 0.0316 µM
[16] = second compound 1 µM, first compound 0.000316 µM
[17] = second compound 1 µM, first compound 0.001 µM
[18] = second compound 1 µM, first compound 0.00316 µM
[19] = second compound 1 µM, first compound 0.01 µM
[20] = second compound 1 µM, first compound 0.0316 µM
[21] = second compound 3.16 µM, first compound 0.000316 µM
[22] = second compound 3.16 µM, first compound 0.001 µM
[23] = second compound 3.16 µM, first compound 0.00316 µM
[24] = second compound 3.16 µM, first compound 0.01 µM
[25] = second compound 3.16 µM, first compound 0.0316 µM
[26] = second compound 0.0316 µM, first compound 0.1 µM
[27] = second compound 0.1 µM, first compound 0.1 µM
[28] = second compound 0.316 µM, first compound 0.1 µM
[29] = second compound 1 µM, first compound 0.1 µM
[30] = second compound 3.16 µM, first compound 0.1 µM
[31] = second compound 0.0316 µM, first compound 0.316 µM
[32] = second compound 0.0316 µM, first compound 1 µM
[33] = second compound 0.0316 µM, first compound 3.16 µM
[34] = second compound 0.0316 µM, first compound 10 µM
[35] = second compound 0.1 µM, first compound 0.316 µM
[36] = second compound 0.1 µM, first compound 1 µM
[37] = second compound 0.1 µM, first compound 3.16 µM
[38] = second compound 0.1 µM, first compound 10 µM
[39] = second compound 0.316 µM, first compound 0.316 µM
[40] = second compound 0.316 µM, first compound 1 µM
[41] = second compound 0.316 µM, first compound 3.16 µM
[42] = second compound 0.316 µM, first compound 10 µM
[43] = second compound 1 µM, first compound 0.316 µM
[44] = second compound 1 µM, first compound 1 µM
[45] = second compound 1 µM, first compound 3.16 µM
[46] = second compound 1 µM, first compound 10 µM
[47] = second compound 3.16 µM, first compound 0.316 µM
[48] = second compound 3.16 µM, first compound 1 µM
[49] = second compound 3.16 µM, first compound 3.16 µM
[50] = second compound 3.16 µM, first compound 10 µM
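Note: spheroids exposed to agents for seven days before reading.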
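Throughout, for viability, T/C: 100% = DMSO vehicle wells so lower means fewer viable cells.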

CC(=O)Nc1cccc(-n2c(=O)n(C3CC3)c(=O)c3c(Nc4ccc(I)cc4F)n(C)c(=O)c(C)c32)c1 + C=CC(=O)N1CCN(c2nc(OCC3CCCN3C)nc3c2CCN(c2cccc4cccc(C)c24)C3)CC1CC#N
IC50 (second compound 0.0316 µM): 6.53 nM
IC50 (second compound 0.1 µM): 5.43 nM
IC50 (second compound 0.316 µM): 3.49 nM
IC50 (second compound 1 µM): 0.128 nM
IC50 (second compound 3.16 µM): < 0.1 nM
viability, T/C (second compound 0.0316 µM, first compound 0.0001 µM): 72.7%
viability, T/C [1]: 64.8%
viability, T/C [2]: 57.4%
viability, T/C [3]: 58%
viability, T/C [4]: 49.1%
viability, T/C [5]: 31.4%
viability, T/C (second compound 0.1 µM, first compound 0.0001 µM): 67.1%
viability, T/C [6]: 68.3%
viability, T/C [7]: 58.4%
viability, T/C [8]: 53%
viability, T/C [9]: 47.8%
viability, T/C [10]: 25.4%
viability, T/C (second compound 0.316 µM, first compound 0.0001 µM): 58.5%
viability, T/C [11]: 54.6%
viability, T/C [12]: 55.7%
viability, T/C [13]: 48%
viability, T/C [14]: 44.7%
viability, T/C [15]: 25.5%
viability, T/C (second compound 1 µM, first compound 0.0001 µM): 48.5%
viability, T/C [16]: 52.4%
viability, T/C [17]: 45.7%
viability, T/C [18]: 41.9%
viability, T/C [19]: 35.8%
viability, T/C [20]: 22.1%
viability, T/C (second compound 3.16 µM, first compound 0.0001 µM): 0.75%
viability, T/C [21]: 0.19%
viability, T/C [22]: 0.19%
viability, T/C [23]: 0.22%
viability, T/C [24]: 0.18%
viability, T/C [25]: 0.31%

CN(C)C/C=C/C(=O)Nc1cc2c(Nc3ccc(F)c(Cl)c3)ncnc2cc1O[C@H]1CCOC1 + C=CC(=O)N1CCN(c2nc(OCC3CCCN3C)nc3c2CCN(c2cccc4cccc(C)c24)C3)CC1CC#N
IC50 (second compound 0.0316 µM): > 100 nM
IC50 (second compound 0.1 µM): 22 nM
IC50 (second compound 0.316 µM): 2.29 nM
IC50 (second compound 1 µM): 2.8 nM
IC50 (second compound 3.16 µM): < 0.316 nM
viability, T/C [1]: 88.8%
viability, T/C [2]: 80.8%
viability, T/C [3]: 74.4%
viability, T/C [4]: 64.2%
viability, T/C [5]: 66.5%
viability, T/C [26]: 61.4%
viability, T/C [6]: 62.9%
viability, T/C [7]: 64.1%
viability, T/C [8]: 50.8%
viability, T/C [9]: 53.7%
viability, T/C [10]: 48.4%
viability, T/C [27]: 47.5%
viability, T/C [11]: 66.8%
viability, T/C [12]: 56.2%
viability, T/C [13]: 45.2%
viability, T/C [14]: 44.8%
viability, T/C [15]: 50.2%
viability, T/C [28]: 45.1%
viability, T/C [16]: 56.3%
viability, T/C [17]: 54.9%
viability, T/C [18]: 47%
viability, T/C [19]: 49.1%
viability, T/C [20]: 43.6%
viability, T/C [29]: 44%
viability, T/C [21]: 1.53%
viability, T/C [22]: 0.35%
viability, T/C [23]: 0.21%
viability, T/C [24]: 1.34%
viability, T/C [25]: 0.49%
viability, T/C [30]: 0.3%

COC(=O)c1ccc2c(C(=Nc3ccc(N(C)C(=O)CN4CCN(C)CC4)cc3)c3ccccc3)c(O)[nH]c2c1 + C=CC(=O)N1CCN(c2nc(OCC3CCCN3C)nc3c2CCN(c2cccc4cccc(C)c24)C3)CC1CC#N
IC50 (second compound 0.0316 µM): 142 nM
IC50 (second compound 0.1 µM): < 31.6 nM
IC50 (second compound 0.316 µM): < 31.6 nM
IC50 (second compound 1 µM): < 31.6 nM
IC50 (second compound 3.16 µM): < 31.6 nM
viability, T/C [5]: 52.8%
viability, T/C [26]: 54.7%
viability, T/C [31]: 42.9%
viability, T/C [32]: 23.4%
viability, T/C [33]: 8.28%
viability, T/C [34]: 7.36%
viability, T/C [10]: 45.9%
viability, T/C [27]: 42%
viability, T/C [35]: 37.1%
viability, T/C [36]: 13%
viability, T/C [37]: 7.74%
viability, T/C [38]: 5.84%
viability, T/C [15]: 49.2%
viability, T/C [28]: 41.6%
viability, T/C [39]: 29.6%
viability, T/C [40]: 14.4%
viability, T/C [41]: 5.46%
viability, T/C [42]: 4%
viability, T/C [20]: 38.6%
viability, T/C [29]: 21.5%
viability, T/C [43]: 16.4%
viability, T/C [44]: 9.18%
viability, T/C [45]: 0.69%
viability, T/C [46]: 1.72%
viability, T/C [25]: 0.33%
viability, T/C [30]: 0.16%
viability, T/C [47]: 0.15%
viability, T/C [48]: 0.12%
viability, T/C [49]: 1.49%
viability, T/C [50]: 0.32%

O=C(c1cc(Cc2n[nH]c(=O)c3ccccc23)ccc1F)N1CCN(C(=O)C2CC2)CC1 + C=CC(=O)N1CCN(c2nc(OCC3CCCN3C)nc3c2CCN(c2cccc4cccc(C)c24)C3)CC1CC#N
IC50 (second compound 0.0316 µM): 1010 nM
IC50 (second compound 0.1 µM): 711 nM
IC50 (second compound 0.316 µM): 490 nM
IC50 (second compound 1 µM): 195 nM
IC50 (second compound 3.16 µM): < 31.6 nM
viability, T/C [5]: 64.1%
viability, T/C [26]: 74.5%
viability, T/C [31]: 104%
viability, T/C [32]: 50.3%
viability, T/C [33]: 26.2%
viability, T/C [34]: 16.8%
viability, T/C [10]: 61.5%
viability, T/C [27]: 58.4%
viability, T/C [35]: 56.4%
viability, T/C [36]: 47.5%
viability, T/C [37]: 25.6%
viability, T/C [38]: 15.7%
viability, T/C [15]: 58.8%
viability, T/C [28]: 56.6%
viability, T/C [39]: 51.2%
viability, T/C [40]: 44.2%
viability, T/C [41]: 20.2%
viability, T/C [42]: 14.4%
viability, T/C [20]: 47.8%
viability, T/C [29]: 56.3%
viability, T/C [43]: 47.1%
viability, T/C [44]: 38.8%
viability, T/C [45]: 19.2%
viability, T/C [46]: 13.8%
viability, T/C [25]: 2.26%
viability, T/C [30]: 2.16%
viability, T/C [47]: 2.51%
viability, T/C [48]: 2.55%
viability, T/C [49]: 3.25%
viability, T/C [50]: 0.24%
